Laboratory results from patent US5089623A, “Certain imidate insecticides” (Imperial Chemical Industries Plc, priority 1990, dated 1992).

How the values were obtained:
Format in all cases: in vivo
[1] = test system: Maize weevil [Sitophilus Zeamais (Motschulsky)]; test: Maize weevil test (MW); conditions: adult weevils, treated corn seeds, 48 hours, percent in solution
Description: The compounds in Tables 1 and 2 above were tested for insecticidal activity using the following testing procedures. LC50 values, based on the results of these tests and calculated according to dosage-mortality curves, are expressed in Table 3.
Maize weevil [Sitophilus Zeamais (Motschulsky)]
Test compounds were diluted in a 50:50 acetone:water solution. Four corn seeds [Zea mays (L.)] which had been immersed in test solutions for 2-3 seconds and allowed to dry were placed in containers together with 10 adult weevils. The containers were covered and kept at a temperature of about 25° C. Mortality was recorded after 48 hours. Test concentrations ranged from 0.01% down to that at which 50% mortalilty occurred. The LC50 values are expressed below in Table 3 under the heading "MW" in terms of percent of the test compound in solution.

[2] = test system: Housefly [Musca domestica]; test: Housefly insecticidal test (HF); conditions: per 25 female houseflies, 48 hours
[3] = test system: Cabbage Looper [Trichoplusia ni (Hubner)]; test: Cabbage looper test (CL); conditions: second-instar larvae, 3-5 days, percent in solution
[4] = test system: Tobacco Budworm [Heliothis virescens (Fabricius)] eggs; test: Tobacco budworm egg test (TBW-E); conditions: percent in solution

SMILES | LC50 MW [1] | LC50 HF [2] | LC50 CL [3] | LC50 TBW E [4]
COc1ccc(N=C(OCc2ccc(F)c(Oc3ccccc3)c2)C(C)C)cc1F [Compound 435] | > 0.01% | < 100 µg | 0.002% | 0.04%
CC(C)C(=Nc1cccc(OC(F)(F)F)c1)OCc1ccc(F)c(Oc2ccc(Cl)cc2)c1 [Compound 436] | > 0.01% | < 100 µg | 0.00075% | < 0.1%
CC(C)C(=Nc1cccc(OC(F)(F)F)c1)OCc1ccc(F)c(Oc2ccccc2)c1 [Compound 437] | > 0.01% | < 100 µg | 0.00075% | 0.025%
CCc1ccc(N=C(OCc2cccc(Oc3ccc(F)cc3)c2)C(C)C)cc1Cl [Compound 438] | > 0.01% | > 100 µg | 0.0009% | < 0.1%
CCOc1ccc(N=C(OCc2ccc(F)c(Oc3ccccc3)c2)C(C)C)cc1F [Compound 439] | > 0.01% | > 100 µg | 0.00045% | > 0.1%
CCCc1ccc(N=C(OCc2ccc(F)c(Oc3ccc(F)cc3)c2)C(C)C)cc1 [Compound 440] | > 0.01% | > 100 µg | 0.002% | < 0.1%
CC(C)C(=Nc1ccc(Cl)c(F)c1)OCc1ccc(F)c(Oc2ccc(F)cc2)c1 [Compound 441] | 0.006% | < 100 µg | 0.000025% | 0.016%
C=C(C)C(=Nc1ccc(C(F)(F)F)cc1)OCc1cccc(Oc2ccc(F)cc2)c1 [Compound 442] | > 0.01% | < 100 µg | 0.0007% | 0.035%
Fc1ccc(COC(=Nc2ccc(C(F)(F)F)cc2)C2CC2)cc1Oc1ccccc1 [Compound 443] | < 0.01% | < 100 µg | 0.00015% | 0.017%
Fc1ccc(COC(=Nc2ccc(C(F)(F)F)cc2)C2CC2)cc1Oc1ccc(Cl)cc1 [Compound 444] | > 0.01% | > 100 µg | 0.00015% | 0.023%
CC(C)C(=Nc1ccc(C(F)(F)F)cc1[N+](=O)[O-])OCc1ccc(F)c(Oc2ccccc2)c1 [Compound 445] | > 0.01% | < 100 µg | 0.00045% | > 0.1%
CCOc1ccc(N=C(OCc2cccc(Oc3ccc(F)cc3)c2)C(C)C)cc1Br [Compound 446] | > 0.01% | > 100 µg | 0.0008% | < 0.1%
CC(C)C(=Nc1ccc(F)c(I)c1)OCc1cccc(Oc2ccc(F)cc2)c1 [Compound 449] | 0.0075% | 13 µg | 0.0001% | 0.025%
CC(C)C(=Nc1cccc(C(F)(F)F)c1)OC(C)c1cccc(Oc2ccccc2)c1 (centres unmarked) [Compound 459] | > 0.01% | > 100 µg | 0.008% | 0.1%
CC(C)C(=Nc1ccc(F)c(Cl)c1)OCc1cccc(Oc2c(F)c(F)c(F)c(F)c2F)c1 [Compound 460] | > 0.01% | > 100 µg | 0.02% | > 0.1%
CC(C)C(=Nc1ccc(I)c(Cl)c1)OCc1cccc(Oc2ccc(Cl)cc2)n1 [Compound 471] | > 0.01% | < 100 µg | 0.00018% | 0.018%
CC(C)C(=Nc1cccc(C(F)(F)F)c1)OCc1cccc(Oc2ccc(Cl)cc2)n1 [Compound 477] | 0.0076% | 20 µg | 0.0003% | > 0.1%
CC(C)C(=Nc1ccc(Br)cc1)OCc1coc(Cc2ccccc2)c1 [Compound 478] | > 0.01% | 15 µg | 0.0037% | > 0.1%
CC(C)C(=Nc1cccc(C(F)(F)F)c1)OCc1coc(Cc2ccccc2)c1 [Compound 482] | > 0.01% | 36 µg | 0.01% | > 0.1%
CC(C)C(=Nc1ccc2c(c1)OCO2)OCc1coc(Cc2ccccc2)c1 [Compound 483] | > 0.01% | 6 µg | 0.001% | 0.05%
CC(C)C(=Nc1ccc(F)cc1F)OCc1coc(Cc2ccccc2)c1 [Compound 486] | > 0.01% | 15 µg | > 0.1% | > 0.1%

SMILES | LC50 MW [1] | LC50 HF [2] | LC50 CL [3] | LC50 TBW E [4]
COCc1c(F)c(F)c(COC(=Nc2cccc(C(F)(F)F)c2)C(C)C)c(F)c1F [Compound 503] | > 0.01% | 21 µg | 0.001% | 0.08%
CC(C)C(=Nc1ccc(C(F)(F)F)cc1)OCc1cccc(Oc2ccccc2)n1 [Compound 504] | 0.01% | < 100 µg | 0.00025% | 0.05%
COCc1c(F)c(F)c(COC(=Nc2ccc(F)c(Cl)c2)C(C)C)c(F)c1F [Compound 505] | > 0.01% | 14 µg | 0.0024% | 0.09%
CC(C)C(=Nc1cccc(C(F)(F)F)c1)OCc1cc(Oc2ccccc2)ccn1 [Compound 506] | > 0.01% | 40 µg | 0.005% | > 0.1%
CC(C)C(=Nc1cccc(C(F)(F)F)c1)OCc1ccnc(Oc2ccccc2)c1 [Compound 507] | > 0.01% | 93 µg | 0.002% | > 0.1%
CC(C)C(=Nc1cccc(C(F)(F)F)c1)OCc1ccnc(Oc2ccc(F)cc2)c1 [Compound 508] | > 0.01% | > 100 µg | 0.013% | > 0.1%
CC(C)C(=Nc1cccc(C(F)(F)F)c1)OCc1cc(Oc2ccc(Cl)cc2)ccn1 [Compound 509] | > 0.01% | 79 µg | 0.0075% | > 0.1%
CC(C)C(=Nc1ccc(F)c(Cl)c1)OCc1ccnc(Oc2ccccc2)c1 [Compound 510] | > 0.01% | 54 µg | 0.017% | > 0.1%
CC(C)C(=Nc1ccc(F)c(Cl)c1)OCc1ccnc(Oc2ccc(F)cc2)c1 [Compound 511] | > 0.01% | 89 µg | 0.0012% | > 0.1%
CC(C)C(=Nc1ccc(OC(F)(F)F)cc1)OCc1cccc(Oc2ccccc2)n1 [Compound 550] | > 0.01% | < 100 µg | 0.00034% | > 0.1%
CC(C)C(=Nc1ccc(Br)c(F)c1)OCc1cccc(Oc2ccc(Cl)cc2)n1 [Compound 551] | > 0.01% | < 100 µg | 0.00075% | 0.035%
CCc1ccc(N=C(OCc2cccc(Oc3ccc(Cl)cc3)n2)C(C)C)cc1 [Compound 552] | > 0.01% | > 100 µg | 0.0016% | > 0.1%
CC(C)C(=Nc1ccc(Cl)cc1)OCc1cccc(Oc2ccccc2)n1 [Compound 553] | > 0.01% | < 100 µg | < 0.1% | 0.1%
CC(C)C(=Nc1ccc(Cl)cc1)OCc1cccc(Oc2ccc(Cl)cc2)n1 [Compound 554] | > 0.01% | > 100 µg | 0.00075% | 0.04%
CC(C)C(=Nc1ccc(Cl)c(C(F)(F)F)c1)OCc1cccc(Oc2ccccc2)n1 [Compound 555] | > 0.01% | < 100 µg | 0.002% | > 0.1%
CC(C)C(=Nc1ccc2c(c1)OC(F)(F)O2)OCc1cccc(Oc2ccccc2)n1 [Compound 556] | > 0.01% | < 100 µg | 0.0007% | 0.04%
CC(C)C(=Nc1cccc(Br)c1)OCc1cccc(Oc2ccc(Cl)cc2)n1 [Compound 557] | > 0.01% | < 100 µg | 0.0004% | > 0.1%
CC(C)C(=Nc1ccc(F)c(Br)c1)OCc1cccc(Oc2ccccc2)n1 [Compound 558] | > 0.01% | < 100 µg | 0.00045% | > 0.1%
CC(C)C(=Nc1ccc(F)c(F)c1)OCc1cccc(Oc2ccc(Cl)cc2)n1 [Compound 559] | > 0.01% | < 100 µg | 0.00027% | 0.017%
C=C(C)C(=Nc1ccc(C(F)(F)F)cc1)OCc1cccc(Oc2ccc(Cl)cc2)n1 [Compound 560] | > 0.01% | < 100 µg | 0.0015% | < 0.1%
